Consider one substance from patent US6656888B1, “Biodegradable two-cycle engine oil compositions, grease compositions, and ester base stocks use therein” (Cognis Corporation, priority 1992, dated 2003).

Holding throughout (type): physicochemical
Series [1] in a line: Kinematic viscosity, ASTM D-445.
Another series can be described thus: Flash Point, ASTM D-92.
A short description of a further series: Pour Point, ASTM D-97.

Take “trimethylolpropane trioleate [EMERY® 2964]”: the “Viscosity, cSt 40° C.” value in series [1] (40° C.) is 48.43 cSt. For the same substance, the “Viscosity, cSt 100° C.” value in series [1] (100° C.) came out at 10.17 cSt. The “Flash Point, ° C.” value in “Flash Point, ASTM D-92” is 312 °C. For the same substance, the “Pour Point, ° C.” value in “Pour Point, ASTM D-97” was −40 °C.
